# Like-named read-outs stand apart in the source and are kept apart here.
# Target: T1, mouse TMEM16A mutant T518A (Mus musculus, UniProt Q8BHY3, T518A)
# T1 construct: expressed in transfected cells; host or cells: HEK293T
# T1 sequence (Q8BHY3 1-960 T518A): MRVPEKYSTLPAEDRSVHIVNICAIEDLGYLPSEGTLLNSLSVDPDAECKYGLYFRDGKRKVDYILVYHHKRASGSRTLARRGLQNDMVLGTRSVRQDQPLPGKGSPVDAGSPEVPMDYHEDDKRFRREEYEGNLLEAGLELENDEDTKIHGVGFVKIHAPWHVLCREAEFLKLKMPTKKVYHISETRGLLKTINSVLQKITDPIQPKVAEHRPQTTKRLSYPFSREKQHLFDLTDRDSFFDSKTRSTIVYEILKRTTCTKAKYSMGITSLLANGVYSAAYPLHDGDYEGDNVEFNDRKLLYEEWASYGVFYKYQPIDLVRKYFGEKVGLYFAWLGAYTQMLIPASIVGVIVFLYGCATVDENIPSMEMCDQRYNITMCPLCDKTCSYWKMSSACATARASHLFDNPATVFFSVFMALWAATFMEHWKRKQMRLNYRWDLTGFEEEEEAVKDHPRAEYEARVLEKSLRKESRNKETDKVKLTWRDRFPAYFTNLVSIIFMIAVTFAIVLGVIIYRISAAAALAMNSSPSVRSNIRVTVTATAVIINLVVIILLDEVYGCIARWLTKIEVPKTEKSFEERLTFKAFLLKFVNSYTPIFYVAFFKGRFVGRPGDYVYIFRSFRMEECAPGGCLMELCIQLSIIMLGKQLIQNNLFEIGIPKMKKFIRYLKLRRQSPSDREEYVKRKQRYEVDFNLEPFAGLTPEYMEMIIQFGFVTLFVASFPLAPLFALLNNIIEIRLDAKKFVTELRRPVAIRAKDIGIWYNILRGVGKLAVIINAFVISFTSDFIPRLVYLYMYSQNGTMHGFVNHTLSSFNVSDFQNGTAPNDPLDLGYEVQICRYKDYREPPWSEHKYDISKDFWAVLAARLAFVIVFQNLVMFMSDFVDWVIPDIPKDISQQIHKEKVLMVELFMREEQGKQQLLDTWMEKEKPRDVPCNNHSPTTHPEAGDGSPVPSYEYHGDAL
# Test: Inside-out patch recording of 1PBC block, mutant T518A
# Type: cell-based
# Conditions: for remaining activity at 1 µM: 1PBC 1; for remaining activity at 1 µM / remaining activity at 3 µM / remaining activity at 10 µM / remaining activity at 30 µM / remaining activity at 100 µM: read-out: fraction of unblocked current; for remaining activity at 3 µM: 1PBC 3; for remaining activity at 10 µM: 1PBC 10; for remaining activity at 30 µM: 1PBC 30; for remaining activity at 100 µM: 1PBC 100
# Experimental: HEK293T cells (ATCC CRL-1573) were maintained in Dulbecco’s modified Eagle’s medium (DMEM; Sigma-Aldrich) supplemented with 10 U ml^−1 penicillin, 0.1 mg ml^−1 streptomycin (Sigma-Aldrich), 2 mM L-glutamine (Sigma-Aldrich), and 10% FBS (Sigma-Aldrich) in a humidified atmosphere containing 5% CO2 at 37 °C. HEK293S GnTI^− cells (ATCC CRL-3022) were maintained in HyClone HyCell TransFx-H medium (GE Healthcare) supplemented with 10 U ml^−1 penicillin, 0.1 mg ml^−1 streptomycin, 4 mM L-glutamine, 0.15% poloxamer 188 (Sigma-Aldrich), and 1% FBS in an atmosphere containing 5% CO2 at 185 rpm at 37 °C. The ac splice variant of mouse TMEM16A (UniProt ID: Q8BHY3), mouse TMEM16B (UniProt ID: Q8CFW1), or mouse TMEM16F (UniProt ID: Q6P9J9) bearing a 3C cleavage site, a Venus YFP, a Myc tag, and a Streptavidin-binding peptide (SBP) downstream of the open reading frame in a modified pcDNA3.1 vector (Invitrogen) were used as described previously[21],[31]. Mutations were introduced using a modified QuikChange method[58] and were verified by sequencing.
# HEK293T cells were transfected with 3–4 μg DNA per 6 cm Petri dish using the calcium phosphate co-precipitation method and were used within 24–96 h after transfection. Recordings were performed on inside-out patches excised from HEK293T cells expressing the construct of interest. Patch pipettes were pulled from borosilicate glass capillaries (O.D. 1.5 mm, I.D. 0.86 mm, Sutter Instrument) and were fire-polished with a microforge (Narishige) before use. Pipette resistance was typically 3–8 MΩ when filled with the recording solutions detailed below. Seal resistance was typically 4 GΩ or higher. Voltage-clamp recordings were made using Axopatch 200B, Digidata 1550, and Clampex 10.7 (Molecular Devices). Analog signals were filtered with the in-built 4-pole Bessel filter at 10 kHz and were digitized at 20 kHz. Solution exchange was achieved using a gravity-fed system through a theta glass pipette mounted on an ultra-fast piezo-driven stepper (Siskiyou). […] All recordings were performed at 20 °C.
# A symmetrical ionic condition was used throughout. Stock solution with Ca^2+-EGTA contained 150 mM NaCl, 5.99 mM Ca(OH)2, 5 mM EGTA, and 10 mM HEPES at pH 7.40. Stock solution with EGTA contained 150 mM NaCl, 5 mM EGTA, and 10 mM HEPES at pH 7.40. Free Ca^2+ concentrations were adjusted by mixing the stock solutions at the required ratios calculated using the WEBMAXC program (http://web.stanford.edu/~cpatton/webmaxcS.htm). Patch pipettes were filled with the stock solution with Ca^2+-EGTA, which has a free Ca^2+ concentration of 1 mM. 1PBC (ChemBridge) stock was reconstituted in anhydrous DMSO (Sigma-Aldrich) at 100 mM and stored at −20 °C. Working solutions with 1PBC were prepared by serial dilution. Unless otherwise stated, experiments were performed at a saturating Ca^2+ concentration as shown in Supplementary Table 1 and the primary data were corrected for current rundown as described previously[21],[25].
# Concentration-response relations, obtained from the ratio of the I-V plots before and after the application of the blocker, were fitted to the Hill equation,1 I/Imax=1/1+IC50/[blocker]^h where I/Imax is the normalized current responses, IC50 defines the concentration at which inhibition is at its half-maximum, and h is the Hill coefficient.
structure (smiles),measurement,setting,value
N#Cc1c(C(F)(F)F)cc(O)n2c1nc1ccccc12 [1PBC],IC50,"0 mV, 2 µM Ca2+",5.67 µM
same,remaining activity at 1 µM,0 mV,82.6%
same,remaining activity at 1 µM,20 mV,78.8%
same,remaining activity at 1 µM,40 mV,75.1%
same,remaining activity at 1 µM,60 mV,71.9%
same,remaining activity at 1 µM,80 mV,70.2%
same,remaining activity at 1 µM,100 mV,70.4%
same,remaining activity at 1 µM,120 mV,72.2%
same,remaining activity at 1 µM,140 mV,76.4%
same,remaining activity at 1 µM,-20 mV,86.3%
same,remaining activity at 1 µM,-40 mV,90%
same,remaining activity at 1 µM,-60 mV,91.9%
same,remaining activity at 1 µM,-80 mV,93.5%
same,remaining activity at 1 µM,-100 mV,95.1%
same,remaining activity at 1 µM,-120 mV,96.6%
same,remaining activity at 1 µM,-140 mV,98%
same,remaining activity at 3 µM,0 mV,65.6%
same,remaining activity at 3 µM,20 mV,60.1%
same,remaining activity at 3 µM,40 mV,54.5%
same,remaining activity at 3 µM,60 mV,51%
same,remaining activity at 3 µM,80 mV,47.8%
same,remaining activity at 3 µM,100 mV,46.3%
same,remaining activity at 3 µM,120 mV,47.6%
same,remaining activity at 3 µM,140 mV,50.5%
same,remaining activity at 3 µM,-20 mV,71.2%
same,remaining activity at 3 µM,-40 mV,76.7%
same,remaining activity at 3 µM,-60 mV,81.4%
same,remaining activity at 3 µM,-80 mV,84.1%
same,remaining activity at 3 µM,-100 mV,87.3%
same,remaining activity at 3 µM,-120 mV,90.5%
same,remaining activity at 3 µM,-140 mV,92.2%
same,remaining activity at 10 µM,0 mV,36.7%
same,remaining activity at 10 µM,20 mV,31%
same,remaining activity at 10 µM,40 mV,26.8%
same,remaining activity at 10 µM,60 mV,24%
same,remaining activity at 10 µM,80 mV,22.2%
same,remaining activity at 10 µM,100 mV,21.1%
same,remaining activity at 10 µM,120 mV,21.2%
same,remaining activity at 10 µM,140 mV,22.5%
same,remaining activity at 10 µM,-20 mV,42.4%
same,remaining activity at 10 µM,-40 mV,48.9%
same,remaining activity at 10 µM,-60 mV,54.9%
same,remaining activity at 10 µM,-80 mV,59.5%
same,remaining activity at 10 µM,-100 mV,64.7%
same,remaining activity at 10 µM,-120 mV,68.5%
same,remaining activity at 10 µM,-140 mV,71.3%
same,remaining activity at 30 µM,0 mV,16.5%
same,remaining activity at 30 µM,20 mV,13.3%
same,remaining activity at 30 µM,40 mV,11.5%
same,remaining activity at 30 µM,60 mV,10.1%
same,remaining activity at 30 µM,80 mV,9.34%
same,remaining activity at 30 µM,100 mV,8.78%
same,remaining activity at 30 µM,120 mV,9.07%
same,remaining activity at 30 µM,140 mV,9.98%
same,remaining activity at 30 µM,-20 mV,19.7%
same,remaining activity at 30 µM,-40 mV,23%
same,remaining activity at 30 µM,-60 mV,27.8%
same,remaining activity at 30 µM,-80 mV,31.9%
same,remaining activity at 30 µM,-100 mV,35.9%
same,remaining activity at 30 µM,-120 mV,39.5%
same,remaining activity at 30 µM,-140 mV,43.5%
same,remaining activity at 100 µM,0 mV,6.52%
same,remaining activity at 100 µM,20 mV,4.86%
same,remaining activity at 100 µM,40 mV,3.97%
same,remaining activity at 100 µM,60 mV,3.5%
same,remaining activity at 100 µM,80 mV,3.13%
same,remaining activity at 100 µM,100 mV,2.74%
same,remaining activity at 100 µM,120 mV,2.48%
same,remaining activity at 100 µM,140 mV,2.4%
same,remaining activity at 100 µM,-20 mV,8.19%
same,remaining activity at 100 µM,-40 mV,9.29%
same,remaining activity at 100 µM,-60 mV,11.5%
same,remaining activity at 100 µM,-80 mV,13.7%
same,remaining activity at 100 µM,-100 mV,16.6%
same,remaining activity at 100 µM,-120 mV,18.8%
same,remaining activity at 100 µM,-140 mV,21.5%
same,IC50,"20 mV, 2 µM Ca2+",4.37 µM
same,IC50,"40 mV, 2 µM Ca2+",3.5 µM
same,IC50,"60 mV, 2 µM Ca2+",2.99 µM
same,log-fold IC50 (change of mutant vs WT),80 mV,0.1093
same,IC50,"80 mV, 2 µM Ca2+",2.66 µM
same,IC50,"100 mV, 2 µM Ca2+",2.55 µM
same,IC50,"120 mV, 2 µM Ca2+",2.69 µM
same,IC50,"140 mV, 2 µM Ca2+",3.08 µM
same,IC50,"-20 mV, 2 µM Ca2+",7.32 µM
same,IC50,"-40 mV, 2 µM Ca2+",9.5 µM
same,IC50,"-60 mV, 2 µM Ca2+",12.2 µM
same,IC50,"-80 mV, 2 µM Ca2+",14.7 µM
same,IC50,"-100 mV, 2 µM Ca2+",18.1 µM
same,IC50,"-120 mV, 2 µM Ca2+",21.5 µM
same,IC50,"-140 mV, 2 µM Ca2+",25.1 µM
same,IC50,"T518A, V 0 mV",5.67 µM
same,IC50,"T518A, V 20 mV",4.37 µM
same,IC50,"T518A, V 40 mV",3.5 µM
same,IC50,"T518A, V 60 mV",2.99 µM
same,IC50,"T518A, V 80 mV",2.66 µM
same,IC50,"T518A, V 100 mV",2.55 µM
same,IC50,"T518A, V 120 mV",2.69 µM
same,IC50,"T518A, V 140 mV",3.08 µM
same,IC50,"T518A, V -20 mV",7.32 µM
same,IC50,"T518A, V -40 mV",9.5 µM
same,IC50,"T518A, V -60 mV",12.2 µM
same,IC50,"T518A, V -80 mV",14.7 µM
same,IC50,"T518A, V -100 mV",18.1 µM
same,IC50,"T518A, V -120 mV",21.5 µM
same,IC50,"T518A, V -140 mV",25.1 µM

# Source: paper PMC9120017, “Inhibition mechanism of the chloride channel TMEM16A by the pore blocker 1PBC” (Nature Communications, 2022)
